Results published in US10479795B2 (Incyte Corporation, priority 2016, dated 2019).
pIC50: −log10 of the molar value. Counter-ions that a name gives are not always drawn. Like-named read-outs stand apart in the source and are kept apart here. Each block holds one compound with its values, some of them ahead of it.

Key:
[1] = system: Phosphorylated Ribosomal Protein S6 (RPS6); experiment: THP-1 RPS6 ELISA Assay; format: cell-based, Human; conditions: THP-1 cells, read-out: PI3Kγ_THP1_RPS6_ELISA IC50
In short: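 Serum-starved THP-1 cells were preincubated with a concentration range of compound for 2 h at 37 °C, then stimulated with 10 nM MCP-1 for 15 min. Phospho-RPS6 in lysates was quantified by ELISA at 450 nm. IC50 came from percent inhibition versus log inhibitor concentration.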

[2] = biological target: PI3Kγ (p110γ) Recombinant Human Protein (Homo sapiens (Human), UniProt P48736); experiment: PI3K-γ Scintillation Proximity Assay; format: biochemical; conditions: read-out: PI3Kγ IC50
In short: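 Recombinant human p110γ assayed at room temperature in 20 mM MOPS pH 6.7, 10 mM MgCl2, 5 mM DTT, 0.03% CHAPS, 2% DMSO, with 20 μM PIP2 and 2 μM ATP plus [γ-33P]ATP. Product captured on WGA SPA beads overnight and counted; IC50 fitted from % of solvent-control activity versus log inhibitor concentration.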

[3] = biological target: PI3Kδ (p110δ/p85α) Recombinant Human Protein (Homo sapiens (Human), UniProt O00329); experiment: PI3Kδ Scintillation Proximity Assay; format: biochemical
In short: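 Recombinant human p110δ/p85α (3.4 nM) with 20 μM PIP2 and 2 μM ATP plus [γ-33P]ATP, in 20 mM MOPS pH 6.7, 10 mM MgCl2, 5 mM DTT, 0.03% CHAPS, 2% DMSO; 120 min at room temperature. Product captured on WGA SPA beads, scintillation counted; IC50 from percent-of-control curves.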

PI3Kγ (p110γ) Recombinant Human Protein, sequence (P48736 whole entry): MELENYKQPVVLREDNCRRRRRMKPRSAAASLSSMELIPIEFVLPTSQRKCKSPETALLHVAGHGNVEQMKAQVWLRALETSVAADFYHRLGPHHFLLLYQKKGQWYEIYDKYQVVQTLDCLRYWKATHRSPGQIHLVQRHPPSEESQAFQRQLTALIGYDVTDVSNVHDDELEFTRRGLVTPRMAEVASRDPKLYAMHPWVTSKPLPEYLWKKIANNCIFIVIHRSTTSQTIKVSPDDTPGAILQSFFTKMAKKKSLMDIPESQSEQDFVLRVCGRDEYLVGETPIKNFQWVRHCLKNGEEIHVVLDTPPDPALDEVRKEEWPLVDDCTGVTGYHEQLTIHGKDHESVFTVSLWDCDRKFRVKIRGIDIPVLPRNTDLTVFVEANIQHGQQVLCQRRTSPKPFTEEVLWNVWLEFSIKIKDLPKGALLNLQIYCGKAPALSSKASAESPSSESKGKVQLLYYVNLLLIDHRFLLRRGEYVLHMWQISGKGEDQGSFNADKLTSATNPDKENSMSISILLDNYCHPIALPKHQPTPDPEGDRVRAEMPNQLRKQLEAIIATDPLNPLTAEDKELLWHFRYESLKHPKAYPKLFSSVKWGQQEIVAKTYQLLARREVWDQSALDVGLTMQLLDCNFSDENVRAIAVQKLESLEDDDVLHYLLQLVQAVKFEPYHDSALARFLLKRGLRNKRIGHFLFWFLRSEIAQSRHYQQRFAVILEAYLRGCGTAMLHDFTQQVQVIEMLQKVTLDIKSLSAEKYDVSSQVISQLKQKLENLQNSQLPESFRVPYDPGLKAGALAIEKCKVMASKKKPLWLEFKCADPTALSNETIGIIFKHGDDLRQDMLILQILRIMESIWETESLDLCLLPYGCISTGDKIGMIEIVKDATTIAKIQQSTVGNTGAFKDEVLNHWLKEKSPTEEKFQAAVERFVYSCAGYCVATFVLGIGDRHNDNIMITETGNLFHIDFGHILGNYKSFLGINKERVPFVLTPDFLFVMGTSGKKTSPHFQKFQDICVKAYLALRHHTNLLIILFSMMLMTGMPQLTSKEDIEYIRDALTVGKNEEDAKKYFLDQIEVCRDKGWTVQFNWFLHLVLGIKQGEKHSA
PI3Kδ (p110δ/p85α) Recombinant Human Protein, sequence (O00329 whole entry): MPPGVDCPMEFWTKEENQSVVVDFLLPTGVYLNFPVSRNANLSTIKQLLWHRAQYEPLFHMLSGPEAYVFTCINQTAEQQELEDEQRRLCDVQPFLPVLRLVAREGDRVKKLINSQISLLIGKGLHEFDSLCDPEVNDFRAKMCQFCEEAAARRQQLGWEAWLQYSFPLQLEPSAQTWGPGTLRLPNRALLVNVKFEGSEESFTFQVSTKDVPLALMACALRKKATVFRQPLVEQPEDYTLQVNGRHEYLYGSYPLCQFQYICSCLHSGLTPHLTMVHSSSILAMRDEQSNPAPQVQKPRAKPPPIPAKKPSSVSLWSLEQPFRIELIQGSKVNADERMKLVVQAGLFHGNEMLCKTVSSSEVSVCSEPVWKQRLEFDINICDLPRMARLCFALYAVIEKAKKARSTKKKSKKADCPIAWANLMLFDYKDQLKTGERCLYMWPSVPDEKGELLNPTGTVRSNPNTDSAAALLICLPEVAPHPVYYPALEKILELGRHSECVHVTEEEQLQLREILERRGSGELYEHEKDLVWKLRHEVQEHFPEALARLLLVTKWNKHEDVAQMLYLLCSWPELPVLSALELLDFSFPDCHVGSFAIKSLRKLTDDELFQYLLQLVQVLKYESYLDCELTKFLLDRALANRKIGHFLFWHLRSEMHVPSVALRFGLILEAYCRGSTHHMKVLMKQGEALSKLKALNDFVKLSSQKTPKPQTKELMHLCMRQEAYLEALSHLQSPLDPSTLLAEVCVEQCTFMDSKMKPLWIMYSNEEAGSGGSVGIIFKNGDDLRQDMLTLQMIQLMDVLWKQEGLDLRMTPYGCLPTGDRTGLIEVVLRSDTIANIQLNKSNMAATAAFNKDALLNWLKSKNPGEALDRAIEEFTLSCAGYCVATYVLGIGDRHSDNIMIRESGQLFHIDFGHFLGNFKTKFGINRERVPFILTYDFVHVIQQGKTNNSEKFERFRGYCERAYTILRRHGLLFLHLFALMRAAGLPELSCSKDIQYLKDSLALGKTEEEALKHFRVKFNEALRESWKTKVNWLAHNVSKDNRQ
PI3Kδ (p110δ/p85α) Recombinant Human Protein, sequence (P27986 whole entry partner): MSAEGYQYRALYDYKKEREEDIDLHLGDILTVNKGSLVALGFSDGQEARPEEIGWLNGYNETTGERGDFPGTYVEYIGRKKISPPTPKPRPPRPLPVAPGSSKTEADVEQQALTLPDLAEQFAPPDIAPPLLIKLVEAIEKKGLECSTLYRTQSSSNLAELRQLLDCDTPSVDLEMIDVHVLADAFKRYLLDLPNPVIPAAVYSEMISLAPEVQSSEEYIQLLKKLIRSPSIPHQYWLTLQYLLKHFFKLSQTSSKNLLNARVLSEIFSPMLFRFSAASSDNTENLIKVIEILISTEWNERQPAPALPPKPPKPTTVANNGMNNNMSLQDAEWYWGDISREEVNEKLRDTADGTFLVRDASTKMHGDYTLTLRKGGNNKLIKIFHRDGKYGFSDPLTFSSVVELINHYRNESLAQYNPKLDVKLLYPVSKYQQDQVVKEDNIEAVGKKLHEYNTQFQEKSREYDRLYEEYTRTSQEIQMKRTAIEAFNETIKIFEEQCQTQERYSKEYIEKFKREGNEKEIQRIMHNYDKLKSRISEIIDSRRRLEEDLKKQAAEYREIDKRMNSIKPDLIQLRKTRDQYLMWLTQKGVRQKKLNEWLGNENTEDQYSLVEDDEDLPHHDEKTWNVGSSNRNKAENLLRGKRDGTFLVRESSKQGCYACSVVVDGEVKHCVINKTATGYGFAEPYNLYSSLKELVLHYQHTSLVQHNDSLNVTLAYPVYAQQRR

SMILES: Cc1cn2c(-c3cc(S(=O)(=O)NC45CC(C#N)(C4)C5)ccc3C)cnc2c(N)n1 [Example 264, 3-(8-Amino-6-methylimidazo[1,2-a]pyrazin-3-yl)-N-(3-cyanobicyclo[1.1.1]pentan-1-yl)-4-methylbenzenesulfonamide trifluoroacetate salt]
pIC50 ([1]; Homo sapiens): 6.30 to 7.00
pIC50 [2]: > 7.00
pIC50 [3]: 6.30 to 7.00

SMILES: Cc1nc(N)c2ncc(-c3cc(S(=O)(=O)NC45CCC(C#N)(C4)C5)ccc3C)n2n1 [Example 265, 3-(4-Amino-2-methylimidazo[1,2-f][1,2,4]triazin-7-yl)-N-(4-cyanobicyclo[2.1.1]hexan-1-yl)-4-methylbenzenesulfonamide trifluoroacetate salt]
pIC50 [1]: > 7.00
pIC50 [2]: > 7.00
pIC50 [3]: > 7.00

SMILES: Cc1nc(N)c2ncc(-c3cc(S(=O)(=O)NCC4(O)CCC4)ccc3C)n2n1 [Example 269, 3-(4-Amino-2-methylimidazo[1,2-f][1,2,4]triazin-7-yl)-N-((1-hydroxycyclobutyl)methyl)-4-methylbenzenesulfonamide trifluoroacetate salt]
pIC50 [1]: 6.30 to 7.00
pIC50 [2]: > 7.00
pIC50 [3]: 6.30 to 7.00

SMILES: Cc1nc(N)c2ncc(-c3cc(S(=O)(=O)NC45CC(C#N)(C4)C5)ccc3C)n2n1 [Example 270, 3-(4-Amino-2-methylimidazo[1,2-f][1,2,4]triazin-7-yl)-N-(3-cyanobicyclo[1.1.1]pentan-1-yl)-4-methylbenzenesulfonamide trifluoroacetate salt]
pIC50 [1]: > 7.00
pIC50 [2]: > 7.00
pIC50 [3]: 6.30 to 7.00

SMILES: Cc1nc(N)c2ncc(-c3cc(S(=O)(=O)N[C@H]4CC[C@](C)(O)CC4)ccc3C)n2n1 [Example 271, 3-(4-amino-2-methylimidazo[1,2-f][1,2,4]triazin-7-yl)-N-((1r,4r)-4-hydroxy-4-methylcyclohexyl)-4-methylbenzenesulfonamide trifluoroacetate salt]
pIC50 [1]: > 7.00
pIC50 [2]: > 7.00
pIC50 [3]: 6.30 to 7.00

SMILES: Cc1nc(N)c2ncc(-c3cc(S(=O)(=O)N[C@H]4C[C@H](C#N)C4)ccc3C)n2n1 [Example 272, 3-(4-amino-2-methylimidazo[1,2-f][1,2,4]triazin-7-yl)-N-((1r,3r)-3-cyanocyclobutyl)-4-methylbenzenesulfonamide trifluoroacetate salt]
pIC50 [1]: 6.30 to 7.00
pIC50 [2]: > 7.00
pIC50 [3]: 6.30 to 7.00

SMILES: Cc1nc(N)c2ncc(-c3cc(S(=O)(=O)NCC(C)(C)O)ccc3C)n2n1 [Example 273, 3-(4-amino-2-methylimidazo[1,2-f][1,2,4]triazin-7-yl)-N-(2-hydroxy-2-methylpropyl)-4-methylbenzenesulfonamide trifluoroacetate salt]
pIC50 [1]: 6.30 to 7.00
pIC50 [2]: > 7.00
pIC50 [3]: 5.70 to 6.30

SMILES: Cc1ccc(S(=O)(=O)NC23CC(CO)(C2)C3)cc1-c1cnc2c(N)nc(C(F)(F)F)cn12 [Example 274, 3-(8-Amino-6-(trifluoromethyl)imidazo[1,2-a]pyrazin-3-yl)-N-(3-(hydroxymethyl)bicyclo[1.1.1]pentan-1-yl)-4-methylbenzenesulfonamide trifluoroacetate salt]
pIC50 ([1]; Homo sapiens): > 7.00
pIC50 [2]: > 7.00
pIC50 [3]: 6.30 to 7.00

SMILES: COC(=O)C12CC(NS(=O)(=O)c3ccc(C)c(-c4cnc5c(N)nc(C(F)(F)F)cn45)c3)(C1)C2 [Example 277, Methyl 3-(3-(8-amino-6-(trifluoromethyl)imidazo[1,2-a]pyrazin-3-yl)-4-methylphenylsulfonamido)bicyclo[1.1.1]pentane-1-carboxylate trifluoroacetate salt]
pIC50 ([1]; Homo sapiens): > 7.00
pIC50 [2]: > 7.00
pIC50 [3]: 6.30 to 7.00

SMILES: Cc1ccc(S(=O)(=O)NC23CC(c4cnco4)(C2)C3)cc1-c1cnc2c(N)nc(C(F)(F)F)cn12 [Example 279, 3-(8-Amino-6-(trifluoromethyl)imidazo[1,2-a]pyrazin-3-yl)-4-methyl-N-(3-(oxazol-5-yl)bicyclo[1.1.1]pentan-1-yl)benzenesulfonamide trifluoroacetate salt]
pIC50 ([1]; Homo sapiens): > 7.00
pIC50 [2]: > 7.00
pIC50 [3]: > 7.00

SMILES: Cc1ccc(S(=O)(=O)NC23CCC(C#N)(C2)C3)cc1-c1cnc2c(N)nc(C(F)(F)F)cn12 [Example 281, 3-(8-Amino-6-(trifluoromethyl)imidazo[1,2-a]pyrazin-3-yl)-N-(4-cyanobicyclo[2.1.1]hexan-1-yl)-4-methylbenzenesulfonamide trifluoroacetate salt]
pIC50 ([1]; Homo sapiens): 6.30 to 7.00
pIC50 [2]: > 7.00
pIC50 [3]: 6.30 to 7.00

SMILES: Cc1ccc(S(=O)(=O)NC23CC(Cn4ccnc4)(C2)C3)cc1-c1cnc2c(N)nc(C(F)(F)F)cn12 [Example 284, N-(3-((1H-imidazol-1-yl)methyl)bicyclo[1.1.1]pentan-1-yl)-3-(8-amino-6-(trifluoromethyl)imidazo[1,2-a]pyrazin-3-yl)-4-methylbenzenesulfonamide trifluoroacetate salt]
pIC50 ([1]; Homo sapiens): 6.30 to 7.00
pIC50 [2]: > 7.00
pIC50 [3]: 6.30 to 7.00

SMILES: Cc1ccc(S(=O)(=O)NC23CC(F)(C2)C3)cc1-c1cnc2c(N)nc(C(F)(F)F)cn12 [Example 285, 3-(8-Amino-6-(trifluoromethyl)imidazo[1,2-a]pyrazin-3-yl)-N-(3-fluorobicyclo[1.1.1]pentan-1-yl)-4-methylbenzenesulfonamide trifluoroacetate salt]
pIC50 ([1]; Homo sapiens): 6.30 to 7.00
pIC50 [2]: > 7.00
pIC50 [3]: 6.30 to 7.00

SMILES: Cc1ccc(S(=O)(=O)NC23CC(C#N)(C2)C3)cc1-c1cnc2c(N)nc(C(F)(F)F)cn12 [Example 287, 3-(8-Amino-6-(trifluoromethyl)imidazo[1,2-a]pyrazin-3-yl)-N-(3-cyanobicyclo[1.1.1]pentan-1-yl)-4-methylbenzenesulfonamide]
pIC50 ([1]; Homo sapiens): > 7.00
pIC50 [2]: > 7.00
pIC50 [3]: 6.30 to 7.00

Second part, the compound after the results:

pIC50 [1]: 6.30 to 7.00
pIC50 [2]: > 7.00
pIC50 [3]: 6.30 to 7.00
SMILES: Cc1nc(N)c2ncc(-c3cc(S(=O)(=O)NC45CCC(CO)(C4)C5)ccc3C)n2n1 [Example 268, 3-(4-Amino-2-methylimidazo[1,2-f][1,2,4]triazin-7-yl)-N-(4-(hydroxymethyl)bicyclo[2.1.1]hexan-1-yl)-4-methylbenzenesulfonamide trifluoroacetate salt]

pIC50 ([1]; Homo sapiens): 6.30 to 7.00
pIC50 [2]: > 7.00
pIC50 [3]: 6.30 to 7.00
SMILES: Cc1ccc(S(=O)(=O)NC23CCC(CO)(C2)C3)cc1-c1cnc2c(N)nc(C(F)(F)F)cn12 [Example 275, 3-(8-Amino-6-(trifluoromethyl)imidazo[1,2-a]pyrazin-3-yl)-N-(4-(hydroxymethyl)bicyclo[2.1.1]hexan-1-yl)-4-methylbenzenesulfonamide trifluoroacetate salt]

pIC50 ([1]; Homo sapiens): > 7.00
pIC50 [2]: > 7.00
pIC50 [3]: 6.30 to 7.00
SMILES: Cc1ccc(S(=O)(=O)NC23CC(CC#N)(C2)C3)cc1-c1cnc2c(N)nc(C(F)(F)F)cn12 [Example 276, 3-(8-Amino-6-(trifluoromethyl)imidazo[1,2-a]pyrazin-3-yl)-N-(3-(cyanomethyl)bicyclo[1.1.1]pentan-1-yl)-4-methylbenzenesulfonamide trifluoroacetate salt]

pIC50 ([1]; Homo sapiens): > 7.00
pIC50 [2]: > 7.00
pIC50 [3]: 6.30 to 7.00
SMILES: Cc1ccc(S(=O)(=O)NC23CC(C(F)F)(C2)C3)cc1-c1cnc2c(N)nc(C(F)(F)F)cn12 [Example 278, 3-(8-Amino-6-(trifluoromethyl)imidazo[1,2-a]pyrazin-3-yl)-N-(3-(difluoromethyl)bicyclo[1.1.1]pentan-1-yl)-4-methylbenzenesulfonamide trifluoroacetate salt]

pIC50 ([1]; Homo sapiens): 6.30 to 7.00
pIC50 [2]: > 7.00
pIC50 [3]: 6.30 to 7.00
SMILES: Cc1ccc(S(=O)(=O)NC23CC(Cn4cncn4)(C2)C3)cc1-c1cnc2c(N)nc(C(F)(F)F)cn12 [Example 280, N-(3-((1H-1,2,4-triazol-1-yl)methyl)bicyclo[1.1.1]pentan-1-yl)-3-(8-amino-6-(trifluoromethyl)imidazo[1,2-a]pyrazin-3-yl)-4-methylbenzenesulfonamide]

pIC50 ([1]; Homo sapiens): > 7.00
pIC50 [2]: > 7.00
pIC50 [3]: 6.30 to 7.00
SMILES: Cc1ccc(S(=O)(=O)NC23CC(C(C)(C)O)(C2)C3)cc1-c1cnc2c(N)nc(C(F)(F)F)cn12 [Example 282, 3-(8-Amino-6-(trifluoromethyl)imidazo[1,2-a]pyrazin-3-yl)-N-(3-(2-hydroxypropan-2-yl)bicyclo[1.1.1]pentan-1-yl)-4-methylbenzenesulfonamide trifluoroacetate salt]

pIC50 ([1]; Homo sapiens): 6.30 to 7.00
pIC50 [2]: > 7.00
pIC50 [3]: 6.30 to 7.00
SMILES: Cc1ccc(S(=O)(=O)NC23CC(Cn4cccn4)(C2)C3)cc1-c1cnc2c(N)nc(C(F)(F)F)cn12 [Example 283, N-(3-((1H-pyrazol-1-yl)methyl)bicyclo[1.1.1]pentan-1-yl)-3-(8-amino-6-(trifluoromethyl)imidazo[1,2-a]pyrazin-3-yl)-4-methylbenzenesulfonamide trifluoroacetate salt]

pIC50 ([1]; Homo sapiens): > 7.00
pIC50 [2]: > 7.00
pIC50 [3]: 6.30 to 7.00
SMILES: Cc1ccc(S(=O)(=O)NC23CC(CF)(C2)C3)cc1-c1cnc2c(N)nc(C(F)(F)F)cn12 [Example 286, 3-(8-Amino-6-(trifluoromethyl)imidazo[1,2-a]pyrazin-3-yl)-N-(3-(fluoromethyl)bicyclo[1.1.1]pentan-1-yl)-4-methylbenzenesulfonamide trifluoroacetate salt]
